Laboratory results reported in patent US20220370406A1, “METHOD OF TREATING STIMULANT USE DISORDER USING A COMBINATION OF TOPIRAMATE AND PHENTERMINE” (University of Kentucky Research Foundation, priority 2019, published 2022).

System: participants with cocaine use disorder
Assay: Medical safety session: subjective effects questionnaires after intranasal cocaine
Assay type: in vivo, human
Method: Participants completed one, single-blind medical safety session to ensure they could tolerate intranasal cocaine. Intranasal cocaine doses (i.e., 0 [placebo], 10, 20, 40 and 80 mg) were administered in ascending order. Placebo (i.e., 0 mg) was administered at 0900 hours. The subjective-effect questionnaires and cardiovascular measures described below were completed 30 minutes before placebo administration (i.e., 0830 hours), immediately following and at 15-minute intervals for 45 minutes. Subsequent cocaine administrations were separated by 45 minutes.

[1] = Cocaine 40 mg, Topiramate (0 mg/day) group
[2] = Cocaine 40 mg, Topiramate (50 mg/day) group
[3] = Cocaine 40 mg, Topiramate (100 mg/day) group
[4] = Cocaine 80 mg, Topiramate (0 mg/day) group
[5] = Cocaine 80 mg, Topiramate (50 mg/day) group
[6] = Cocaine 80 mg, Topiramate (100 mg/day) group

`COC(=O)[C@H]1[C@@H](OC(=O)c2ccccc2)C[C@@H]2CC[C@H]1N2C` [Cocaine, cocaine] was tested, and the “Adjective Rating Scales Sedative, mean peak effect” value (from here on “Adjective Rating Scales Sedative”) [1] was 3.2, the “Adjective Rating Scales Stimulant, mean peak effect” value (“Adjective Rating Scales Stimulant” below) [1] was 0.0 and the “Drug-Effect Questionnaire Active-Alert-Energetic, mean peak effect” value [1] was 26.0. For the same compound, the “Drug-Effect Questionnaire Any Effect, mean peak effect” value (“Drug-Effect Questionnaire Any Effect” below) [1] was 33.3, the “Drug-Effect Questionnaire Bad Effects, mean peak effect” value (shortened to “Drug-Effect Questionnaire Bad Effects”) [1] was 9.0 and the “Drug-Effect Questionnaire Euphoric, mean peak effect” value (from here on “Drug-Effect Questionnaire Euphoric”) [1] was 10.6. The “Drug-Effect Questionnaire Good Effects, mean peak effect” value (from here on “Drug-Effect Questionnaire Good Effects”) [1] was 33.9, the “Drug-Effect Questionnaire High, mean peak effect” value (from here on “Drug-Effect Questionnaire High”) [1] was 29.5 and the “Drug-Effect Questionnaire Irregular Heart Beat, mean peak effect” value [1] was 7.4. The “Drug-Effect Questionnaire Like Drug, mean peak effect” value (from here on “Drug-Effect Questionnaire Like Drug”) [1] was 36.1, the “Drug-Effect Questionnaire Nausea-Queasy-Sick, mean peak effect” value [1] was 3.2 and the “Drug-Effect Questionnaire Nervous-Anxious, mean peak effect” value [1] was 10.1. For the same compound, the “Drug-Effect Questionnaire Performance Impaired, mean peak effect” value [1] was 10.7, the “Drug-Effect Questionnaire Performance Improved, mean peak effect” value [1] was 10.7 and the “Drug-Effect Questionnaire Restless, mean peak effect” value (shortened to “Drug-Effect Questionnaire Restless”) [1] was 10.4. The “Drug-Effect Questionnaire Rush, mean peak effect” value (shortened to “Drug-Effect Questionnaire Rush”) [1] was 28.1, the “Drug-Effect Questionnaire Shaky-Jittery, mean peak effect” value (shortened to “Drug-Effect Questionnaire Shaky-Jittery”) [1] was 9.7 and the “Drug-Effect Questionnaire Sluggish-Fatigued-Lazy, mean peak effect” value [1] was 9.0. The “Drug-Effect Questionnaire Stimulated, mean peak effect” value (“Drug-Effect Questionnaire Stimulated” below) [1] was 21.1, the “Drug-Effect Questionnaire Talkative-Friendly, mean peak effect” value [1] was 16.7 and the “Drug-Effect Questionnaire Willing to Pay For, mean peak effect” value [1] was 32.8. For the same compound, the “Drug-Effect Questionnaire Willing to Take Again, mean peak effect” value [1] was 40.6, the “Adjective Rating Scales Sedative” value [2] was 2.1 and the “Adjective Rating Scales Stimulant” value [2] was 10.1. The “Drug-Effect Questionnaire Active-Alert-Energetic, mean peak effect” value [2] was 24.7, the “Drug-Effect Questionnaire Any Effect” value [2] was 19.3 and the “Drug-Effect Questionnaire Bad Effects” value [2] was 7.2. The “Drug-Effect Questionnaire Euphoric” value [2] was 6.2, the “Drug-Effect Questionnaire Good Effects” value [2] was 17.0 and the “Drug-Effect Questionnaire High” value [2] was 29.9. For the same compound, the “Drug-Effect Questionnaire Irregular Heart Beat, mean peak effect” value [2] was 6.0, the “Drug-Effect Questionnaire Like Drug” value [2] was 16.7 and the “Drug-Effect Questionnaire Nausea-Queasy-Sick, mean peak effect” value [2] was 9.8. For the same compound, the “Drug-Effect Questionnaire Nervous-Anxious, mean peak effect” value [2] was 1.8, the “Drug-Effect Questionnaire Performance Impaired, mean peak effect” value [2] was 1.9 and the “Drug-Effect Questionnaire Performance Improved, mean peak effect” value [2] was 10.6. For the same compound, the “Drug-Effect Questionnaire Restless” value [2] was 2.9, the “Drug-Effect Questionnaire Rush” value [2] was 30.0 and the “Drug-Effect Questionnaire Shaky-Jittery” value [2] was 2.8. For the same compound, the “Drug-Effect Questionnaire Sluggish-Fatigued-Lazy, mean peak effect” value [2] was 0.1, the “Drug-Effect Questionnaire Stimulated” value [2] was 22.3 and the “Drug-Effect Questionnaire Talkative-Friendly, mean peak effect” value [2] was 13.6. For the same compound, the “Drug-Effect Questionnaire Willing to Pay For, mean peak effect” value [2] was 17.0, the “Drug-Effect Questionnaire Willing to Take Again, mean peak effect” value [2] was 17.4 and the “Adjective Rating Scales Sedative” value [3] was 5.1. The “Adjective Rating Scales Stimulant” value [3] was 11.8, the “Drug-Effect Questionnaire Active-Alert-Energetic, mean peak effect” value [3] was 13.8 and the “Drug-Effect Questionnaire Any Effect” value [3] was 22.1. For the same compound, the “Drug-Effect Questionnaire Bad Effects” value [3] was 3.0, the “Drug-Effect Questionnaire Euphoric” value [3] was 6.7 and the “Drug-Effect Questionnaire Good Effects” value [3] was 24.0. For the same compound, the “Drug-Effect Questionnaire High” value [3] was 23.6, the “Drug-Effect Questionnaire Irregular Heart Beat, mean peak effect” value [3] was 9.0 and the “Drug-Effect Questionnaire Like Drug” value [3] was 20.8. The “Drug-Effect Questionnaire Nausea-Queasy-Sick, mean peak effect” value [3] was 16.2, the “Drug-Effect Questionnaire Nervous-Anxious, mean peak effect” value [3] was 8.1 and the “Drug-Effect Questionnaire Performance Impaired, mean peak effect” value [3] was 4.1. The “Drug-Effect Questionnaire Performance Improved, mean peak effect” value [3] was 5.0, the “Drug-Effect Questionnaire Restless” value [3] was 9.1 and the “Drug-Effect Questionnaire Rush” value [3] was 20.1. The “Drug-Effect Questionnaire Shaky-Jittery” value [3] was 8.7, the “Drug-Effect Questionnaire Sluggish-Fatigued-Lazy, mean peak effect” value [3] was 9.1 and the “Drug-Effect Questionnaire Stimulated” value [3] was 16.5. The “Drug-Effect Questionnaire Talkative-Friendly, mean peak effect” value [3] was 13.2, the “Drug-Effect Questionnaire Willing to Pay For, mean peak effect” value [3] was 15.0 and the “Drug-Effect Questionnaire Willing to Take Again, mean peak effect” value [3] was 16.4. The “Adjective Rating Scales Sedative” value [4] was 4.1, the “Adjective Rating Scales Stimulant” value [4] was 8.5 and the “Drug-Effect Questionnaire Active-Alert-Energetic, mean peak effect” value [4] was 25.6. The “Drug-Effect Questionnaire Any Effect” value [4] was 39.1, the “Drug-Effect Questionnaire Bad Effects” value [4] was 8.2 and the “Drug-Effect Questionnaire Euphoric” value [4] was 10.5. For the same compound, the “Drug-Effect Questionnaire Good Effects” value [4] was 33.3, the “Drug-Effect Questionnaire High” value [4] was 27.7 and the “Drug-Effect Questionnaire Irregular Heart Beat, mean peak effect” value [4] was 14.4. For the same compound, the “Drug-Effect Questionnaire Like Drug” value [4] was 34.6, the “Drug-Effect Questionnaire Nausea-Queasy-Sick, mean peak effect” value [4] was 8.8 and the “Drug-Effect Questionnaire Nervous-Anxious, mean peak effect” value [4] was 12.1. The “Drug-Effect Questionnaire Performance Impaired, mean peak effect” value [4] was 10.5, the “Drug-Effect Questionnaire Performance Improved, mean peak effect” value [4] was 11.5 and the “Drug-Effect Questionnaire Restless” value [4] was 10.1. For the same compound, the “Drug-Effect Questionnaire Rush” value [4] was 27.3, the “Drug-Effect Questionnaire Shaky-Jittery” value [4] was 13.8 and the “Drug-Effect Questionnaire Sluggish-Fatigued-Lazy, mean peak effect” value [4] was 5.7. The “Drug-Effect Questionnaire Stimulated” value [4] was 21.1, the “Drug-Effect Questionnaire Talkative-Friendly, mean peak effect” value [4] was 17.9 and the “Drug-Effect Questionnaire Willing to Pay For, mean peak effect” value [4] was 30.5. The “Drug-Effect Questionnaire Willing to Take Again, mean peak effect” value [4] was 38.4, the “Adjective Rating Scales Sedative” value [5] was 2.4 and the “Adjective Rating Scales Stimulant” value [5] was 13.2. For the same compound, the “Drug-Effect Questionnaire Active-Alert-Energetic, mean peak effect” value [5] was 31.4, the “Drug-Effect Questionnaire Any Effect” value [5] was 29.6 and the “Drug-Effect Questionnaire Bad Effects” value [5] was 10.4. The “Drug-Effect Questionnaire Euphoric” value [5] was 14.7, the “Drug-Effect Questionnaire Good Effects” value [5] was 24.0 and the “Drug-Effect Questionnaire High” value [5] was 31.8. For the same compound, the “Drug-Effect Questionnaire Irregular Heart Beat, mean peak effect” value [5] was 0.8, the “Drug-Effect Questionnaire Like Drug” value [5] was 28.4 and the “Drug-Effect Questionnaire Nausea-Queasy-Sick, mean peak effect” value [5] was 1.2. For the same compound, the “Drug-Effect Questionnaire Nervous-Anxious, mean peak effect” value [5] was 2.2, the “Drug-Effect Questionnaire Performance Impaired, mean peak effect” value [5] was 1.9 and the “Drug-Effect Questionnaire Performance Improved, mean peak effect” value [5] was 11.2. The “Drug-Effect Questionnaire Restless” value [5] was 7.8, the “Drug-Effect Questionnaire Rush” value [5] was 28.4 and the “Drug-Effect Questionnaire Shaky-Jittery” value [5] was 4.8. For the same compound, the “Drug-Effect Questionnaire Sluggish-Fatigued-Lazy, mean peak effect” value [5] was 0.0, the “Drug-Effect Questionnaire Stimulated” value [5] was 31.8 and the “Drug-Effect Questionnaire Talkative-Friendly, mean peak effect” value [5] was 14.3. For the same compound, the “Drug-Effect Questionnaire Willing to Pay For, mean peak effect” value [5] was 30.6, the “Drug-Effect Questionnaire Willing to Take Again, mean peak effect” value [5] was 30.3 and the “Adjective Rating Scales Sedative” value [6] was 7.8. The “Adjective Rating Scales Stimulant” value [6] was 15.7, the “Drug-Effect Questionnaire Active-Alert-Energetic, mean peak effect” value [6] was 24.5 and the “Drug-Effect Questionnaire Any Effect” value [6] was 39.5. The “Drug-Effect Questionnaire Bad Effects” value [6] was 12.2, the “Drug-Effect Questionnaire Euphoric” value [6] was 16.2 and the “Drug-Effect Questionnaire Good Effects” value [6] was 27.9. For the same compound, the “Drug-Effect Questionnaire High” value [6] was 42.0, the “Drug-Effect Questionnaire Irregular Heart Beat, mean peak effect” value [6] was 24.1 and the “Drug-Effect Questionnaire Like Drug” value [6] was 32.4. The “Drug-Effect Questionnaire Nausea-Queasy-Sick, mean peak effect” value [6] was 20.5, the “Drug-Effect Questionnaire Nervous-Anxious, mean peak effect” value [6] was 22.9 and the “Drug-Effect Questionnaire Performance Impaired, mean peak effect” value [6] was 12.9. For the same compound, the “Drug-Effect Questionnaire Performance Improved, mean peak effect” value [6] was 9.5, the “Drug-Effect Questionnaire Restless” value [6] was 11.1 and the “Drug-Effect Questionnaire Rush” value [6] was 36.1. The “Drug-Effect Questionnaire Shaky-Jittery” value [6] was 22.1, the “Drug-Effect Questionnaire Sluggish-Fatigued-Lazy, mean peak effect” value [6] was 22.0 and the “Drug-Effect Questionnaire Stimulated” value [6] was 31.1. For the same compound, the “Drug-Effect Questionnaire Talkative-Friendly, mean peak effect” value [6] was 16.1, the “Drug-Effect Questionnaire Willing to Pay For, mean peak effect” value [6] was 21.0 and the “Drug-Effect Questionnaire Willing to Take Again, mean peak effect” value [6] was 33.6.
